Converted amounts (≈) assume the structure as drawn. Like-named read-outs stand apart in the source and are kept apart here.
How the values were obtained:
[1] = tested on: Acinetobacter baumanii/haemolyticus: Multidrug-resistant clinical isolate (AB-3167); test: MIC determination (CLSI), AB-3167; type: cell-based; conditions: for MIC: Acinetobacter baumannii
How it was run: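 Multidrug-resistant clinical isolate AB-3167 (A. baumannii/haemolyticus) tested for minimum inhibitory concentration following CLSI dilution susceptibility standards M7-A7 and M100-S18.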

[2] = tested on: Klebsiella pneumoniae: Ciprofloxacin-resistant isolate, ESBL, clinical isolate (KP-3700); test: MIC determination (CLSI), KP-3700; type: cell-based
How it was run: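 Strain KP-3700, a clinical isolate producing extended-spectrum β-lactamases and resistant to ciprofloxacin, was tested. Minimum inhibitory concentrations determined via CLSI dilution methodology (M7-A7; M100-S18).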

[3] = tested on: Pseudomonas aeruginosa UI-18: Wild-type (PA-7); test: MIC determination (CLSI), PA-7; type: cell-based; conditions: for MIC: Pseudomonas aeruginosa
How it was run: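 Wild-type P. aeruginosa UI-18 tested for minimum inhibitory concentration. Broth/agar dilution following CLSI standards (M7-A7, M100-S18).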

[4] = molecular target: Pseudomonas aeruginosa LpxC enzyme (Pseudomonas aeruginosa (strain ATCC 15692 / DSM 22644 / CIP 104116 / JCM 14847 / LMG 12228 / 1C / PRS 101 / PAO1), UniProt P47205); test: IC50 Assay, LpxC Enzyme from P. aeruginosa (PA LpxC Enzyme IC50); type: biochemical
How it was run: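 Product formation quantified by RapidFire HTMS after a 1 h enzyme reaction quenched with 1N HCl.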

[5] = tested on: Escherichia coli EC-1: VOGEL, mouse virulent; test: MIC determination (CLSI), EC-1; type: cell-based; conditions: for MIC: Escherichia coli
How it was run: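 E. coli Vogel, a mouse-virulent strain (EC-1), was tested. MICs were set by dilution susceptibility testing per CLSI standards M7-A7/M100-S18.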

[6] = Table 3, read-out: PA LpxC enzyeme IC^50
[7] = Acinetobacter baumanii/haemolyticus AB-3167
[8] = Pseudomonas aeruginosa UI-18 (PA-7)
[9] = P. aeruginosa LpxC enzyme, read-out: PA LpxC enzyeme IC50
[10] = Acinetobacter baumanii/haemolyticus multidrug-resistant clinical isolate AB-3167
[11] = Pseudomonas aeruginosa UI-18 wild-type PA-7
[12] = Escherichia coli EC-1 VOGEL, mouse virulent
[13] = Table 1, MIC, read-out: AB-3167 (MIC)
[14] = Table 1, MIC, read-out: PA-7 (MIC)
[15] = Table 1, read-out: PA LpxC enzyeme IC50

Row | Structure (SMILES) | KP-3700 MIC [2] | IC50 [4, 9] [nM] | AB-3167 MIC [1, 10] | PA-7 MIC [3, 11] [µg/mL] | EC-1 MIC [5, 12] | other results
1 | CC(CCc1ccc(OCc2c(F)cc(F)cc2F)cc1)(C(=O)NO)S(C)(=O)=O (stereo not shown) [Example 293, N-hydroxy-2-methyl-2-(methylsulfonyl)-4-{4-[(2,4,6-trifluorobenzyl)oxy]phenyl}butanamide] | 32 µg/mL |  |  |  |  | MIC ([1]; Table 3, read-out: AB-3167 MIC): 32 µg/mL (≈ 74.2 µM); MIC ([3]; Table 3, read-out: PA-7 MIC): 4 µg/mL (≈ 9.27 µM); IC50 [4, 6]: 0.955 nM; MIC ([5]; read-out: EC-1 MIC): 4 µg/mL (≈ 9.27 µM)
2 | C[C@@](CCc1ccc(-c2ccc(C#N)cn2)cc1)(C(=O)NO)S(C)(=O)=O [Example 202] | 16 µg/mL | 0.808 |  |  |  | AB-3167 MIC [1, 7]: ≧64 mg/L; PA-7 MIC [3, 8]: 1 µg/mL; EC-1 MIC ([5]; Escherichia coli EC-1): 8 µg/mL
3 | CC(C)(O)CCc1ccc(-c2ccc(CCC(C)(C(=O)NO)S(C)(=O)=O)cc2)cc1 (stereo not shown) [Example 158] | 8 µg/mL | 0.644 | 32 µg/mL | 4 | 0.5 µg/mL | 
4 | C[C@@](CCc1ccc(-c2ccc(OCCCN3CCOCC3)cc2)cc1)(C(=O)NO)S(C)(=O)=O [Example 179] | 2 µg/mL | 0.172 | 2 µg/mL | 2 | 0.125 µg/mL | 
5 | Cc1ccccc1COc1ccc(CCC(C)(C(=O)NO)S(C)(=O)=O)cc1 (stereo not shown) [Example 260, N-hydroxy-2-methyl-4-{4-[(2-methylbenzyl)oxy]phenyl}-2-(methylsulfonyl)butanamide] | ≧64 mg/L |  |  |  |  | MIC ([1]; Table 3, read-out: AB-3167 MIC): 32 µg/mL (≈ 81.7 µM); MIC ([3]; Table 3, read-out: PA-7 MIC): 8 µg/mL (≈ 20.4 µM); IC50 [4, 6]: 1.45 nM; MIC ([5]; read-out: EC-1 MIC): 16 µg/mL (≈ 40.9 µM)
6 | CC(CCc1ccc(OCc2c(F)cccc2F)cc1)(C(=O)NO)S(C)(=O)=O (stereo not shown) [Example 258, 4-{4-[(2,6-difluorobenzyl)oxy]phenyl}-N-hydroxy-2-methyl-2-(methylsulfonyl)butanamide] | 16 µg/mL |  |  |  |  | MIC ([1]; Table 3, read-out: AB-3167 MIC): 32 µg/mL (≈ 77.4 µM); MIC ([3]; Table 3, read-out: PA-7 MIC): 2 µg/mL (≈ 4.84 µM); IC50 [4, 6]: 0.599 nM; MIC ([5]; read-out: EC-1 MIC): 2 µg/mL (≈ 4.84 µM)
7 | CC(CCc1ccc(-c2ccc3c(c2)OCO3)cc1)(C(=O)NO)S(C)(=O)=O (stereo not shown) [Example 176] | 2 µg/mL | 0.0303 | 16 µg/mL | 0.5 | 0.5 µg/mL | 
8 | CC(CCc1ccc(-c2cnc3ccccc3c2)cc1F)(C(=O)NO)S(C)(=O)=O (stereo not shown) [Example 200] | 8 µg/mL | 0.463 | ≧64 mg/L | 4 | 1 µg/mL | 
9 | CC(CCc1ccc(-c2ccc([N+](=O)[O-])cc2)cc1)(C(=O)NO)S(C)(=O)=O (racemic) [Example 5, (+/−)-N-hydroxy-2-methyl-2-(methylsulfonyl)-4-(4′-nitrobiphenyl-4-yl)butanamide] | 1 µg/mL |  |  |  |  | MIC [1, 13]: 32 µg/mL (≈ 81.5 µM); MIC [3, 14]: 0.5 µg/mL (≈ 1.27 µM); IC50 [4, 15]: 0.12 nM; MIC ([5]; read-out: EC-1: (MIC)): 0.5 µg/mL (≈ 1.27 µM)
10 | CC(=O)c1ccc(-c2ccc(CC[C@](C)(C(=O)NO)S(C)(=O)=O)cc2)cc1 [Example 182] | 1 µg/mL | 0.0674 | 16 µg/mL | 0.5 | 0.5 µg/mL | 
11 | CC(CCc1ccc(OCc2ccccn2)cc1)(C(=O)NO)S(C)(=O)=O (racemic) [Example 16, (+/−)-N-Hydroxy-2-methyl-2-(methylsulfonyl)-4-[4-(pyridin-2-ylmethoxy)phenyl]butanamide] | ≧64 mg/L |  |  |  |  | MIC [1, 13]: ≥ 64 µg/mL; MIC [3, 14]: 16 µg/mL (≈ 42.3 µM); IC50 ([4]; PA LpxC enzyeme IC50, Table 1): 5.01 nM; MIC ([5]; read-out: EC-1: (MIC)): ≥ 64 µg/mL
12 | C[C@@](CCc1ccc(-c2ccc(OCCCN3CCCCC3)cc2)cc1)(C(=O)NO)S(C)(=O)=O [Example 220] | 32 µg/mL | 0.467 |  |  |  | AB-3167 MIC [1, 7]: ≧64 mg/L; PA-7 MIC [3, 8]: 16 µg/mL; EC-1 MIC ([5]; Escherichia coli EC-1): 8 µg/mL
13 | CC(=O)c1ccc(-c2ccc(CCC(C)(C(=O)NO)S(C)(=O)=O)cc2)cc1O (stereo not shown) [Example 181] | 8 µg/mL | 0.138 | 8 µg/mL | 2 | 0.5 µg/mL | 
14 | CC(CCc1ccc(-c2ccc(C(=O)CO)cc2)cc1)(C(=O)NO)S(C)(=O)=O (stereo not shown) [Example 169] | 4 µg/mL | 0.2 | 32 µg/mL | 1 | 2 µg/mL | 
15 | CC(=O)NC[C@@H]1CN(c2ccc(-c3ccc(CC[C@](C)(C(=O)NO)S(C)(=O)=O)cc3)c(F)c2)C(=O)O1 [Example 14, (2R)-4-{4′-[(5R)-5-(Acetamidomethyl)-2-oxo-1,3-oxazolidin-3-yl]-2′-fluorobiphenyl-4-yl}-N-hydroxy-2-methyl-2-(methylsulfonyl)butanamide] | ≧64 mg/L |  |  |  |  | MIC [1, 13]: ≥ 64 µg/mL; MIC [3, 14]: 32 µg/mL (≈ 61.4 µM); IC50 [4, 15]: 1.48 nM; MIC ([5]; read-out: EC-1: (MIC)): 16 µg/mL (≈ 30.7 µM)
16 | CC(CCc1ccc(OCc2nc(-c3cccnc3)no2)cc1)(C(=O)NO)S(C)(=O)=O (stereo not shown) [Example 305, N-hydroxy-2-methyl-2-(methylsulfonyl)-4-{4-[(3-pyridin-3-yl-1,2,4-oxadiazol-5-yl)methoxy]phenyl}butanamide] | ≧64 mg/L |  |  |  |  | MIC ([1]; Table 3, read-out: AB-3167 MIC): ≥ 64 µg/mL; MIC ([3]; Table 3, read-out: PA-7 MIC): 32 µg/mL (≈ 71.7 µM); IC50 [4, 6]: 7.53 nM; MIC ([5]; read-out: EC-1 MIC): 32 µg/mL (≈ 71.7 µM)
17 | C[C@@](CCc1ccc(-c2ccc(C(=O)CO)cc2)cc1)(C(=O)NO)S(C)(=O)=O [Example 186] | 4 µg/mL | 0.238 | ≧64 mg/L | 1 | 2 µg/mL | 
18 | C[C@@](CCc1ccc(-c2ccc(OCCN3CCOCC3)cc2)cc1)(C(=O)NO)S(C)(=O)=O [Example 172] | 4 µg/mL | 0.512 | ≧64 mg/L | 4 | 0.5 µg/mL | 
19 | CC(CCc1ccc(C2=CCSCC2)cc1)(C(=O)NO)S(C)(=O)=O (stereo not shown) [Example 226] | 8 µg/mL | 0.32 |  |  |  | AB-3167 MIC [1, 7]: 16 µg/mL; PA-7 MIC [3, 8]: 1 µg/mL; EC-1 MIC ([5]; Escherichia coli EC-1): 8 µg/mL
20 | COc1ccc(-c2ccc(CCC(C)(C(=O)NO)S(C)(=O)=O)cc2F)cn1 (stereo not shown) [Example 213] | 8 µg/mL | 0.518 |  |  |  | AB-3167 MIC [1, 7]: ≧64 mg/L; PA-7 MIC [3, 8]: 2 µg/mL; EC-1 MIC ([5]; Escherichia coli EC-1): 2 µg/mL
21 | CC(CCc1ccc(-c2cccnc2)c(F)c1)(C(=O)NO)S(C)(=O)=O (stereo not shown) [Example 197] | ≧64 mg/L | 7.11 | ≧64 mg/L | 8 | ≧64 mg/L | 
22 | C#CCOc1ccc(CCC(C)(C(=O)NO)S(C)(=O)=O)cc1 (stereo not shown) [Example 265, N-hydroxy-2-methyl-2-(methylsulfonyl)-4-[4-(prop-2-yn-1-yloxy)phenyl)butanamide] | ≧64 mg/L |  |  |  |  | MIC ([1]; Table 3, read-out: AB-3167 MIC): ≥ 64 µg/mL; MIC ([3]; Table 3, read-out: PA-7 MIC): 16 µg/mL (≈ 49.2 µM); IC50 [4, 6]: 105 nM; MIC ([5]; read-out: EC-1 MIC): ≥ 64 µg/mL
23 | CC(=O)c1ccc(-c2ccc(CCC(C)(C(=O)NO)S(C)(=O)=O)c(F)c2)cn1 (stereo not shown) [Example 188] | 8 µg/mL | 0.348 | ≧64 mg/L | 2 | 8 µg/mL | 
